Assay [1] is described as follows: Inhibition of wheat-germ agglutinin-mediated hemagglutinination of rabbit erythrocytes. Set-up: species or system Triticum aestivum.
Assay [2] concerns Erythrina variegata. The experiment in a line: Binding affinity to Erythrina variegata agglutinin assessed as precipitation by UV detection based precipitation analysis.
Assay [3] deals with Triticum aestivum. Nature of the assay: Binding affinity to wheat-germ agglutinin assessed as precipiting bands by double diffusion test.
Assay [4] relates to Triticum aestivum. Nature of the assay: Binding affinity to wheat-germ agglutinin assessed as increase in response units by surface plasmon resonance. For orientation: Surface plasmon resonance follows binding to a sensor surface in real time, without labels.
Assay [5] is described as follows: Inhibition of Erythrina variegata agglutinin-mediated hemagglutinination of rabbit erythrocytes.
Assay [6] concerns Triticum aestivum. The experiment in a line: Binding affinity to wheat-germ agglutinin assessed as precipitation by UV detection based precipitation analysis.
Assay [7] deals with Erythrina variegata. Nature of the assay: Binding affinity to Erythrina variegata agglutinin assessed as precipiting bands by double diffusion test.

These results are taken from ChEMBL document CHEMBL1159123, “Molecular design of N-linked tetravalent glycosides bearing N-acetylglucosamine, N,N'-diacetylchitobiose and N-acetyllactosamine: Analysis of cross-linking activities with WGA and ECA lectins” (Bioorg Med Chem, 2010).

Each structure is given as a SMILES string. The source made the active and inactive calls. The rule behind the calls is not given here.

As to `CC(=O)N[C@H]1[C@H](O[C@H]2[C@H](O)[C@@H](NC(C)=O)C(O)O[C@@H]2CO)O[C@H](CO)[C@@H](O)[C@@H]1O` (stereo not given in full), 750 µM corresponded to half-maximal inhibition in assay [1] (IC50).
In assay [1], `CC(=O)N[C@@H]1[C@@H](O)[C@H](O)[C@@H](CO)O[C@H]1NC(=O)CCCCCNC(=O)CN(CCOCCOCCN(CC(=O)NCCCCCC(=O)N[C@@H]1O[C@H](CO)[C@@H](O)[C@H](O)[C@H]1NC(C)=O)CC(=O)NCCCCCC(=O)N[C@@H]1O[C@H](CO)[C@@H](O)[C@H](O)[C@H]1NC(C)=O)CC(=O)NCCCCCC(=O)N[C@@H]1O[C@H](CO)[C@@H](O)[C@H](O)[C@H]1NC(C)=O` registered a 50% inhibitory concentration (IC50) of 46.9 µM. Also, in the assay with Erythrina variegata [2], the outcome was inactive. The outcome in the assay with Triticum aestivum [3] was Active. Further, in the assay with Triticum aestivum [4], the Activity entry is “Dose-dependent effect”.
The corresponding values for `CC(=O)N[C@@H]1[C@@H](O)[C@H](O)[C@@H](CO)O[C@H]1NC(=O)CN(CCOCCOCCN(CC(=O)N[C@@H]1O[C@H](CO)[C@@H](O)[C@H](O)[C@H]1NC(C)=O)CC(=O)N[C@@H]1O[C@H](CO)[C@@H](O)[C@H](O)[C@H]1NC(C)=O)CC(=O)N[C@@H]1O[C@H](CO)[C@@H](O)[C@H](O)[C@H]1NC(C)=O` are over 4000 µM, “inactive”, “inactive” and “Dose-dependent effect”.
Consider `CC(=O)N[C@@H]1[C@@H](O)[C@H](O[C@@H]2O[C@H](CO)[C@H](O)[C@H](O)[C@H]2O)[C@@H](CO)O[C@H]1O`, for which half-maximal inhibition in assay [5] (IC50) required 94 µM.
The compound `CC(=O)N[C@@H]1[C@@H](O)[C@H](O[C@@H]2O[C@H](CO)[C@@H](O)[C@H](O)[C@H]2NC(C)=O)[C@@H](CO)O[C@H]1NC(=O)CCCCCNC(=O)CN(CCOCCOCCN(CC(=O)NCCCCCC(=O)N[C@@H]1O[C@H](CO)[C@@H](O[C@@H]2O[C@H](CO)[C@@H](O)[C@H](O)[C@H]2NC(C)=O)[C@H](O)[C@H]1NC(C)=O)CC(=O)NCCCCCC(=O)N[C@@H]1O[C@H](CO)[C@@H](O[C@@H]2O[C@H](CO)[C@@H](O)[C@H](O)[C@H]2NC(C)=O)[C@H](O)[C@H]1NC(C)=O)CC(=O)NCCCCCC(=O)N[C@@H]1O[C@H](CO)[C@@H](O[C@@H]2O[C@H](CO)[C@@H](O)[C@H](O)[C@H]2NC(C)=O)[C@H](O)[C@H]1NC(C)=O` had a half-inhibitory concentration (IC50) in assay [1] of 0.18 µM. In addition, in the assay on Erythrina variegata [2], the result was inactive. In the assay on Triticum aestivum [3], the result was Active. In the assay on Triticum aestivum [4], the Activity entry is “Dose-dependent effect”.
As to `CC(=O)N[C@@H]1[C@@H](O)[C@H](O[C@@H]2O[C@H](CO)[C@H](O)[C@H](O)[C@H]2O)[C@@H](CO)O[C@H]1NC(=O)CCCCCNC(=O)CN(CCOCCOCCN(CC(=O)NCCCCCC(=O)N[C@@H]1O[C@H](CO)[C@@H](O[C@@H]2O[C@H](CO)[C@H](O)[C@H](O)[C@H]2O)[C@H](O)[C@H]1NC(C)=O)CC(=O)NCCCCCC(=O)N[C@@H]1O[C@H](CO)[C@@H](O[C@@H]2O[C@H](CO)[C@H](O)[C@H](O)[C@H]2O)[C@H](O)[C@H]1NC(C)=O)CC(=O)NCCCCCC(=O)N[C@@H]1O[C@H](CO)[C@@H](O[C@@H]2O[C@H](CO)[C@H](O)[C@H](O)[C@H]2O)[C@H](O)[C@H]1NC(C)=O`, the IC50 in assay [5] was determined as 5.9 µM. The outcome with Triticum aestivum [6] and in the assay with Triticum aestivum [3] was inactive. For the same compound, the result in the assay on Erythrina variegata [2] and in the assay on Erythrina variegata [7] was Active.
On to `CC(=O)N[C@@H]1[C@@H](O)[C@H](O[C@@H]2O[C@H](CO)[C@H](O)[C@H](O)[C@H]2O)[C@@H](CO)O[C@H]1NC(=O)CCCCCC(=O)N[C@@H]1O[C@H](CO)[C@@H](O[C@@H]2O[C@H](CO)[C@H](O)[C@H](O)[C@H]2O)[C@H](O)[C@H]1NC(C)=O`, for which, in assay [5], half-maximal inhibition (IC50) was put at 47 µM.
In turn, `CC(=O)N[C@@H]1[C@@H](O)[C@H](O[C@@H]2O[C@H](CO)[C@@H](O)[C@H](O)[C@H]2NC(C)=O)[C@@H](CO)O[C@H]1NC(=O)CN(CCOCCOCCN(CC(=O)N[C@@H]1O[C@H](CO)[C@@H](O[C@@H]2O[C@H](CO)[C@@H](O)[C@H](O)[C@H]2NC(C)=O)[C@H](O)[C@H]1NC(C)=O)CC(=O)N[C@@H]1O[C@H](CO)[C@@H](O[C@@H]2O[C@H](CO)[C@@H](O)[C@H](O)[C@H]2NC(C)=O)[C@H](O)[C@H]1NC(C)=O)CC(=O)N[C@@H]1O[C@H](CO)[C@@H](O[C@@H]2O[C@H](CO)[C@@H](O)[C@H](O)[C@H]2NC(C)=O)[C@H](O)[C@H]1NC(C)=O` showed an IC50 in assay [1] of 5.86 µM. In addition, in the assay with Erythrina variegata [2], the outcome was inactive. Also, the result in the assay with Triticum aestivum [3] was Active. Further, the Activity entry in the assay on Triticum aestivum [4] was “Dose-dependent effect”.
Turning to `CC(=O)N[C@@H]1[C@@H](O)[C@H](O[C@@H]2O[C@H](CO)[C@H](O)[C@H](O)[C@H]2O)[C@@H](CO)O[C@H]1NC(=O)CN(CCOCCOCCN(CC(=O)N[C@@H]1O[C@H](CO)[C@@H](O[C@@H]2O[C@H](CO)[C@H](O)[C@H](O)[C@H]2O)[C@H](O)[C@H]1NC(C)=O)CC(=O)N[C@@H]1O[C@H](CO)[C@@H](O[C@@H]2O[C@H](CO)[C@H](O)[C@H](O)[C@H]2O)[C@H](O)[C@H]1NC(C)=O)CC(=O)N[C@@H]1O[C@H](CO)[C@@H](O[C@@H]2O[C@H](CO)[C@H](O)[C@H](O)[C@H]2O)[C@H](O)[C@H]1NC(C)=O`, the results for the IC50 in assay [1] and in assay [5] were over 4000 µM and 1.2 µM, respectively. Besides, the outcome in the assay on Triticum aestivum [6] and in the assay on Triticum aestivum [3] was inactive. The result with Erythrina variegata [2] and in the assay on Erythrina variegata [7] was Active.

One may read the IC50 as the concentration needed to halve the response being measured. Lower therefore signals higher potency.
